test: Evaluation of stability in liver microsome; conditions: mouse liver microsome 0.25 mg/mL, 1 μM test compound, 37° C. for 30 minutes

Row | Structure (SMILES) | Remaining (%)
1 | COCc1ccc(NC(=O)c2c(-c3cn[nH]c3)n(C3(C)CC3)c3ncnc(N)c23)cc1 [Example 167, 4-amino-N-(4-(methoxymethyl)phenyl)-7-(1-methylcyclopropyl)-6-(1H-pyrazol-4-yl)-7H-pyrrolo[2,3-d]pyrimidine-5-carboxamide] | 80%
2 | COCc1ccc(NC(=O)c2c(C#Cc3ccc(Cl)nc3)n(C3(C)CC3)c3ncnc(N)c23)cc1 [Example 120, 4-amino-6-((6-chloropyridin-3-yl)ethynyl)-N-(4-(methoxymethyl)phenyl)-7-(1-methylcyclopropyl)-7H-pyrrolo[2,3-d]pyrimidine-5-carboxamide] | 72%
3 | COCc1ccc(NC(=O)c2c(SC)n(C3(C)CC3)c3ncnc(N)c23)cc1 [Example 133, 4-amino-N-(4-methoxymethyl)phenyl-7-(1-methylcyclopropyl)-6-(methylthio)-7H-pyrrolo[2,3-d]pyrimidine-5-carboxamide] | 70%
4 | COCc1ccc(NC(=O)c2c(C#Cc3cncc(C#N)c3)n(C3(C)CC3)c3ncnc(N)c23)cc1 [Example 195, 4-amino-6-((5-cyanopyridin-3-yl)ethynyl)-N-(4-(methoxymethyl)phenyl)-7-(1-methylcyclopropyl)-7H-pyrrolo[2,3-d]pyrimidine-5-carboxamide] | 70%
5 | COCc1ccc(NC(=O)c2c(OCC3CCOC3)n(C3(C)CC3)c3ncnc(N)c23)cc1 (stereo not drawn) [Example 101, 4-amino-N-(4-(methoxymethyl)phenyl)-7-(1methylcyclopropyl)-6-((tetrahydrofuran-3-yl)methoxy)-7H-pyrrolo[2,3-d]pyrimidine-5-carboxamide] | 68%
6 | COCc1ccc(NC(=O)c2cn(C(C)(C)C)c3ncnc(N)c23)c(OC)c1 [Example 33, 4-amino-7-(tert-butyl)-N-(2-methoxy-4-(methoxymethyl)phenyl)-7H-pyrrolo[2,3-d]pyrimidine-5-carboxamide] | 57%
7 | CCC(O)CC#Cc1c(C(=O)Nc2ccc(COC)cc2)c2c(N)ncnc2n1C1(C)CC1 (stereo not drawn) [Example 157, 4-amino-6-(4-hydroxyhex-1-yn-1-yl)-N-(4-(methoxymethyl)phenyl)-7-(1-methylcyclopropyl)-7H-pyrrolo[2,3-d]pyrimidine-5-carboxamide] | 59%
8 | COCc1ccc(NC(=O)c2c(C#Cc3cnc4[nH]ccc4c3)n(C3(C)CC3)c3ncnc(N)c23)cc1 [Example 128, 6-((1H-pyrrolo[2,3-b]pyridine-5-yl)ethynyl)-4-amino-N-(4-(methoxymethyl)phenyl)-7-(1-methylcyclopropyl)-7H-pyrrolo[2,3-d]pyrimidine-5-carboxamide] | 82%
9 | COCc1ccc(NC(=O)c2c(C#Cc3cnn(C)c3)n(C3(C)CC3)c3ncnc(N)c23)cc1 [Example 90, 4-amino-N-[4-(methoxymethyl)phenyl]-6-((1-methyl-1H-pyrazol-4-yl)ethynyl)-7-(1-methylcyclopropyl)-7H-pyrrolo[2,3-d]pyrimidine-5-carboxamide] | 67%
10 | COCc1ccc(NC(=O)c2cn(C3(C(F)F)CC3)c3ncnc(N)c23)cc1 [Example 46, 4-amino-7-(1-(difluoromethyl)cyclopropyl)-N-(4-(methoxymethyl)phenyl)-7H-pyrrolo[2,3-d]pyrimidine-5-carboxamide] | 65%
11 | COCc1ccc(NC(=O)c2c(C#CCN(C)C)n(C3(C)CC3)c3ncnc(N)c23)cc1 [Example 198, 4-amino-6-(3-(dimethylamino)prop-1-yn-1-yl)-N-(4-(methoxymethyl)phenyl)-7-(1-methylcyclopropyl)-7H-pyrrolo[2,3-d]pyrimidine-5-carboxamide] | 57%
12 | COCc1ccc(NC(=O)c2c(OCC(C)(C)OC)n(C3(C)CC3)c3ncnc(N)c23)cc1 [Example 137, 4-amino-6-(2-methoxy-2-methylpropoxy)-N-(4-(methoxymethyl)phenyl)-7-(1-methylcyclopropyl)-7H-pyrrolo[2,3-d]pyrimidine-5-carboxamide] | 53%
13 | COCc1ccc(NC(=O)c2c(C#CCN3CCCC3)n(C3(C)CC3)c3ncnc(N)c23)cc1 [Example 88, 4-amino-N-[4-(methoxymethyl)phenyl]-7-(1-methylcyclopropyl)-6-(3-(pyrrolidin-1-yl)prop-1-yn-1-yl)-7H-pyrrolo[2,3-d]pyrimidine-5-carboxamide] | 59%
14 | COCc1ccc(NC(=O)c2c(C#Cc3ccc4c(c3)NCCO4)n(C3(C)CC3)c3ncnc(N)c23)cc1 [Example 158, 4-amino-6-((3,4-dihydro-2H-benzo[b][1,4]oxazin-6-yl)ethynyl)-N-(4-(methoxymethyl)phenyl)-7-(1-methylcyclopropyl)-7H-pyrrolo[2,3-d]pyrimidine-5-carboxamide] | 85%
15 | COCc1ccc(NC(=O)c2c(C#Cc3cnn(C(C)C)c3)n(C3(C)CC3)c3ncnc(N)c23)cc1 [Example 144, 4-amino-6-((1-isopropyl-1H-pyrazol-4-yl)ethynyl)-N-(4-(methoxymethyl)phenyl)-7-(1-methylcyclopropyl)-7H-pyrrolo[2,3-d]pyrimidine-5-carboxamide] | 79%
16 | COCc1ccc(NC(=O)c2c(C#CCN3CCN(C)CC3)n(C3(C)CC3)c3ncnc(N)c23)cc1 [Example 132, 4-amino-N-(4-(methoxymethyl)phenyl)-7-(1methylcyclopropyl)-6-(3-(4-methylpiperazin-1-yl)prop-1-yn-1-yl)-7H-pyrrolo[2,3-d]pyrimidine-5-carboxamide] | 77%
17 | CCOc1c(C(=O)Nc2ccc(COC)cc2)c2c(N)ncnc2n1C1(C)CC1 [Example 127, 4-amino-6-ethoxy-N-(4-(methoxymethyl)phenyl)-7-(1-methylcyclopropyl)-7H-pyrrolo[2,3-d]pyrimidine-5-carboxamide] | 70%
18 | CC(C)(C)n1cc(C(=O)Nc2ccc(-c3cc[nH]n3)cc2)c2c(N)ncnc21 [Example 80, N-(4-(1H-pyrazol-3-yl)phenyl)-4-amino-7-(tert-butyl)-7H-pyrrolo[2,3-d]pyrimidine-5-carboxamide] | 50%
19 | COCc1ccc(NC(=O)c2c(C#Cc3ccc(N)nc3)n(C3(C)CC3)c3ncnc(N)c23)cc1 [Example 155, 4-amino-6-((6-aminopyridin-3-yl)ethynyl)-N-(4-(methoxymethyl)phenyl)-7-(1-methylcyclopropyl)-7H-pyrrolo[2,3-d]pyrimidine-5-carboxamide] | 64%
20 | COCc1ccc(NC(=O)c2c(C#CC(C)(C)N)n(C3(C)CC3)c3ncnc(N)c23)cc1 [Example 134, 4-amino-6-(3-amino-3-methylbut-1-yn-1-yl)-N-(4-(methoxymethyl)phenyl)-7-(1-methylcyclopropyl)-7H-pyrrolo[2,3-d]pyrimidine-5-carboxamide] | 79%
21 | COCc1ccc(NC(=O)c2c(C#CC3(O)CCOCC3)n(C3(C)CC3)c3ncnc(N)c23)cc1 [Example 185, 4-amino-6-((4-hydroxytetrahydro-2H-pyran4-yl)ethynyl)-N-(4-(methoxymethyl)phenyl)-7-(1-methylcyclopropyl)-7H-pyrrolo[2,3-d]pyrimidine-5-carboxamide] | 80%
22 | COCc1ccc(NC(=O)c2c(C(C)=O)n(C3(C)CC3)c3ncnc(N)c23)cc1 [Example 64, 6-acetyl-4-amino-N-(4-(methoxymethyl)phenyl)-7-(1-methylcyclopropyl)-7H-pyrrolo[2,3-d]pyrimidine-5-carboxamide] | 89%
23 | COCc1ccc(NC(=O)c2c(OCC(C)OC)n(C3(C)CC3)c3ncnc(N)c23)cc1 (stereo not drawn) [Example 100, 4-amino-N-(4(methoxymethyl)phenyl)-6-(2-methoxypropoxy)-7-(1-methylcyclopropyl)-7H-pyrrolo[2,3-d]pyrimidine-5-carboxamide] | 76%
24 | COCc1ccc(NC(=O)c2c(C#Cc3cncs3)n(C3(C)CC3)c3ncnc(N)c23)cc1 [Example 193, 4-amino-N-[4-(methoxymethyl)phenyl]-7-(1-methylcyclopropyl)-6-(thiazol-5-ylethynyl)-7H-pyrrolo[2,3-d]pyrimidine-5-carboxamide] | 51%
25 | COCc1ccc(NC(=O)c2c(C#CCC3CCCCC3)n(C3(C)CC3)c3ncnc(N)c23)cc1 [Example 199, 4-amino-6-(3-cyclohexylprop-1-yn-1-yl)-N-(4-(methoxymethyl)phenyl)-7-(1-methylcyclopropyl)-7H-pyrrolo[2,3-d]pyrimidine-5-carboxamide] | 80%
26 | COCc1ccc(NC(=O)c2c(OCC3CCCC3)n(C3(C)CC3)c3ncnc(N)c23)cc1 [Example 140, 4-amino-6-(cyclopentylmethoxy)-N-(4-(methoxymethyl)phenyl)-7-(1-methylcyclopropyl)-7H-pyrrolo[2,3-d]pyrimidine-5-carboxamide] | 52%
27 | COCc1ccc(NC(=O)c2cn(C(C)(C)C)c3ncnc(N)c23)cc1 [Example 2, 4-amino-7-(tert-butyl)-N-(4-(methoxymethyl)phenyl)-7H-pyrrolo[2,3-d]pyrimidine-5-carboxamide] | 64%
28 | COCc1ccc(NC(=O)c2c(OC[C@H]3CCCO3)n(C3(C)CC3)c3ncnc(N)c23)cc1 [Example 89, (R)-4-amino-N-[4-(methoxymethyl)phenyl]-7-(1-methylcyclopropyl)-6-((tetrahydrofuran-2-yl)methoxy)-7H-pyrrolo[2,3-d]pyrimidine-5-carboxamide] | 69%
29 | COCc1ccc(NC(=O)c2c(C#Cc3ccsc3)n(C3(C)CC3)c3ncnc(N)c23)cc1 [Example 176, 4-amino-N-(4-(methoxymethyl)phenyl)-7-(1-methylcyclopropyl)-6-(thiophen-3-ylethynyl)-7H-pyrrolo[2,3-d]pyrimidine-5-carboxamide] | 70%
30 | CCn1nccc1C#Cc1c(C(=O)Nc2ccc(COC)cc2)c2c(N)ncnc2n1C1(C)CC1 [Example 114, 4-amino-6-((1-ethyl-1H-pyrazol-5-yl)ethynyl)-N-(4-(methoxymethyl)phenyl)-7-(1-methylcyclopropyl)-7H-pyrrolo[2,3-d]pyrimidine-5-carboxamide] | 55%

From patent US10155768B2, “Fused pyrimidine compound or salt thereof” (TAIHO PHARMACEUTICAL CO., LTD., priority 2016, dated 2018)
